Where two headings read alike, the source gives them in different places.
Tests used:
Cells growing in culture = test: Barcode quantification by Real Time PCR, dead vs. live cells; format: cell-based
Experimental: Cells growing in culture were treated with the liposome mixes and 48 hours after exposure the cell were subjected to viability assay. Dead cells from each study group (in triplicates) were first pelleted by centrifugation of supernatant and kept at −20 C until further analysis. Fresh medium supplemented with 10% Presto Blue Reagent (ThermoFisher Scientific) was added to cells and incubated at 37 C for about 90 minutes. 100 ul of each well was transferred to a black 96 wells plate and Fluorescence was recorded ([…]). Viability was calculated as Fluorescence of each sample relative to fluorescence of non-treated cells. Both mixes killed a similar amount of cells. Immediately following the viability assay, adherent cells were detached by addition of trypsin to the wells. Barcode analysis by Real Time PCR was performed as follows. The different barcodes were analyzed using a ThermoFisher Scientific Quantstudiol PCR System. The assay was run with TaqMan Fast Advanced master mix (ThermoFisher Scientific), primers (IDT) and a barcode specific probe labeled on the 5′ end with fluorescent FAM dye and on its 3′ end with a nonfluorescent quencher linked to a Minor Groove Binder (MGB) (ThermoFisher Scientific). […] After preparation of all dilutions, Real Time PCR was used to validate the standard curve. A reaction was run for all barcodes together. Reaction settings were as follow: 2 μL of sample was run in a Real Time Quantstudiol PCR instrument, using fast template protocol. Each sample was run in duplicate. Each barcode tested was compared to a standard curve run on the same plate. Each barcode reaction comprised at least 4 NTCs. In the Set Up, target (barcode tested), task (sample=Unknown/Standard/NTC), name and biological group were assigned to each sample. […] Analysis calculated average amount of barcode copies between replicate samples. This quantity was obtained for 2 μl of sample (volume of sample in RT-PCR reaction) and was adjusted to the final volume of the sample. The ratio of each barcode found in dead vs. live cells was calculated.

[1] = test system: triple negative breast cancer tumors; test: Barcode analysis in live and dead tumor cells after injection of liposome mixes; format: in vivo, BALB/c female mice; conditions: 5%
Excerpt: FIGS. 1A-D: Detection of barcodes from liposome mixes with equal relative drug concentrations. […] Potency of the drugs was defined as the ratio of the amount of a barcode in dead cells to the amount of that barcode in live cells. (1D) A bar chart showing fluorescence from dead cells after treatment with two mixes of liposomes.
Each drug has its own specific effective therapeutic dose (ETD), and in order to test efficacy it is reasonable that each liposome mix (a mix of all three types of liposomes to be injected together) should have the same relative amount of each drug. That is, in order to determine an ideal dose, batches of mixed liposomes were generated in which all three drugs were present in a concentration that was either 5%, 1% or 0.1% of the effective therapeutic dose. Table 2 provides the amounts (in ul) of each liposome batch that were added to the mix in order to provide each total dose.
Cell from a triple negative breast cancer tumor were transplanted to the fat pad of BALB/c female mice and allowed to grow to form tumors in the mice. The mice were separated into 3 groups and then each group was injected with the 5%, 1% or 0.1% liposome mixes. 48 hours post injection the tumors were excised, and live/dead cell analysis was performed by FACS, followed by barcode analysis in live and dead cells separately.

[2] = test system: 4T1 derived cancers and metastases; conditions: cited from earlier work; for Effect on tumor growth: Kiew et al., 2012
[3] = first batch of liposomes (equal liposome number)

## Nc1ccn([C@@H]2O[C@H](CO)[C@@H](O)C2(F)F)c(=O)n1 [Gemcitabine]
Cells growing in culture; [3]
  Effective at killing the cells: effective
[1]; 1% or 0.1% mixes, patent regards it as likely artifact
  Effectiveness relative to the other two drugs: > 10 fold
[1]; 1% or 0.1% of ETD liposome mixes, 48 hours post injection
  Potency (barcode in dead cells to live cells): most effective treatment
[2]; first couple of days of treatment
  Effect on tumor growth: retards tumor growth
[2]; later time points
  Effect on tumor growth: not be effective

## COc1cccc2c1C(=O)c1c(O)c3c(c(O)c1C2=O)C[C@@](O)(C(=O)CO)C[C@@H]3O[C@H]1C[C@H](N)[C@H](O)[C@H](C)O1 [doxorubicin]
Cells growing in culture; [3]
  Effective at killing the cells: effective
Cells growing in culture; second batch of liposomes (equal relative drug concentration)
  Effective at killing the cells: effective
[2]; reported
  Resistance of 4T1 cells: become resistant
  Sensitivity of 4T1 derived cancers and metastases: less so

## N.N.[Cl][Pt][Cl] [cisplatin]
[2]; reported
  Sensitivity of 4T1 derived cancers and metastases: highly sensitive

Reference: US20210283056A1, “COMPOSITIONS FOR THERAPEUTICS PRESCREENING” (BARCODE DIAGNOSTICS LTD., priority 2018, published 2021)
